Data: US11498921B1, “Pyrimidine or pyridine compounds, preparation method therefor and pharmaceutical uses thereof” (INVENTISBIO CO., LTD., priority 2014, dated 2022)
Structures can show the parent of a compound that is named as a salt.

Columns and labels:
Assay type in all cases: cell-based
[1] = tested on: NCI-H1975 cells (T790M and L858R EGFR mutations); test: Cell growth inhibition (Cell Titer-Glo), NCI-H1975; conditions: Homo sapiens, 72 hours drug treatment, 0.03 nM to 100 nM
Procedure: (§1) Experiment of Cell Growth Inhibition
(§2) The LoVo cell line is a wild-type EGFR human colon adenocarcinoma cell, and is grown in F-12K medium (GIBCO) containing 10% FBS. NCI-H2073 cell line is a wild-type EGFR human non-small cell lung cancer cell and grown in ACL-4 medium containing 10% FBS. The growth rate of NCI-H1975, LoVo and NCI-H2073 cells was detected by Cell Titer-Glo luminescence activity assay (Promega #G7572).
(§3) Briefly, trypsin was used for digesting cells in the logarithmic growth phase. 96-well plates were seeded with 50,000 Lovo or NCI-H2073 cells, 2500-3000 NCI-H1975 cells per well and provided with blank control wells containing only nutrient solution without inoculated cell, and the plates were incubated in a humidified incubator with 5% CO2 at 37° C. […] The concentration of test drug in NCI-H1975 cells was from 0.03 nM to 100 nM, and that in LoVo and NCI-H2073 cells was from 3 nM to 10 μM. The cell culture medium containing the different compounds was then added to a 96-well cell plate in which one cell control well comprising cell culture medium only containing DMSO was provided. After a drug treatment for 72 hours, the cell plates were removed from the incubator and allowed to stand at room temperature for 30 minutes. Next, Cell Titer-Glo reagent was added to the wells and the 96-well cell plate was shaken at room temperature for 10 minutes to induce cell lysis. The 96-well cell plate was placed on the bench for 2 minutes to stabilize the luminescence signal. Finally, the 96-well cell plate was placed in an EnVision Multi-labeled Microplate Reader (PerkinElmer), and the signal was read with an integral time of 0.5 seconds.
(§4) Formula: Percentage of cell growth inhibition %=(maximum signal−compound signal)/(maximum signal−minimum signal)*100%
(§5) The maximal signal was obtained from the cell control well which were treated with the DMSO solution having no any compound;
(§6) The compound signal was obtained from the drug-treated cell wells to which the compound was added;
(§7) The minimum signal was obtained from a blank control well to which no cells and only nutrient solution was added.

[2] = tested on: LoVo cells (wild-type EGFR human colon adenocarcinoma); test: Cell growth inhibition (Cell Titer-Glo), LoVo; conditions: 72 hours drug treatment, 3 nM to 10 μM
Procedure: as §1, §2, §3, §4, §5, §6, §7

[3] = tested on: NCI-H2073 cells (wild-type EGFR human non-small cell lung cancer); test: Cell growth inhibition (Cell Titer-Glo), NCI-H2073; conditions: 72 hours drug treatment, 3 nM to 10 μM
Procedure: as §1
as §2, with “The compounds that were preferentially targeted for EGFR targeting certain mutations and relatively weak in wild-type EGFR were identified by determining the growth of cells. The NCI-H1975 cell line is a human non-small cell lung cancer cell containing T790M and L858R EGFR mutations, and the cell is grown in RPMI-1640 medium (GIBCO) containing 10% fetal bovine serum (FBS). The LoVo” for “The LoVo”
Briefly, trypsin was used for digesting cells in the logarithmic growth phase. 96-well plates were seeded with 50,000 Lovo or NCI-H2073 cells, 2500-3000 NCI-H1975 cells per well and provided with blank control wells containing only nutrient solution without inoculated cell, and the plates were incubated in a humidified incubator with 5% CO2 at 37° C. After 24 hours, the DMSO solution of the different compounds was diluted with a cell culture medium at 3.16 times per time to eight different concentrations from high to low levels. The concentration of test drug in NCI-H1975 cells was from 0.03 nM to 100 nM, and that in LoVo and NCI-H2073 cells was from 3 nM to 10 μM. The cell culture medium containing the different compounds was then added to a 96-well cell plate in which one cell control well comprising cell culture medium only containing DMSO was provided. After a drug treatment for 72 hours, the cell plates were removed from the incubator and allowed to stand at room temperature for 30 minutes. Next, Cell Titer-Glo reagent was added to the wells and the 96-well cell plate was shaken at room temperature for 10 minutes to induce cell lysis. The 96-well cell plate was placed on the bench for 2 minutes to stabilize the luminescence signal. Finally, the 96-well cell plate was placed in an EnVision Multi-labeled Microplate Reader (PerkinElmer), and the signal was read with an integral time of 0.5 seconds.
as §4, §5, §6, §7

| IC50 [1] [µM] | IC50 [2] [µM] | IC50 [3] [µM] | Structure (SMILES) |
| --- | --- | --- | --- |
| 0.084 | 1.81 |  | C=CC(=O)Nc1cc(Nc2nccc(-c3cn(C)c4ccccc34)n2)c(OC)cc1N1CCC(N2CCOCC2)CC1 [27. (MsOH)3] |
| 0.0059 |  | 0.253 | C=CC(=O)Nc1cc(Nc2nccc(-n3c(=O)n(CC(F)(F)F)c4ccccc43)n2)c(OC)cc1N(C)CCN(C)C [108. (MsOH)2] |
| 0.0484 | 0.912 |  | C=CC(=O)Nc1cc(Nc2nccc(N3CCCc4ccccc43)n2)c(OC)cc1N(C)CCN(C)C [35. (MsOH)3] |
| 0.0055 |  | 0.193 | C=CC(=O)Nc1cc(Nc2nccc(-c3cn(S(=O)(=O)CC)c4ccccc34)n2)c(OC)cc1N(C)CCN(C)C [101. (MsOH)2] |
| 0.0436 | 0.52 |  | C=CC(=O)Nc1cc(Nc2nccc(-c3cn(C)c4ccccc34)n2)c(OC)cc1N1CCC(N2CCC2)C1 (stereo not drawn) [18. (MsOH)3] |
| > 0.1 | 0.954 |  | C=CC(=O)Nc1cc(Nc2nccc(-c3cn(C)c4ccccc34)n2)c(OC)cc1N1CCC(N2CCN(C)CC2)C1 (stereo not drawn) [20. (MsOH)4] |
| > 0.1 | 0.846 |  | C=CC(=O)Nc1cc(Nc2nccc(-c3cn(C)c4ccccc34)n2)c(OC)cc1OCCN1CCN(C)CC1 [31. (MsOH)3] |
| > 0.1 | > 10 |  | C=CC(=O)Nc1cc(Nc2nccc(-c3cn(C)c4ccccc34)n2)c(OC)cc1N1CCC(OC)C1 (stereo not drawn) [17. (MsOH)2] |
| > 0.1 | 2.55 |  | C=CC(=O)Nc1cc(Nc2nccc(-c3cn(C)c4ccccc34)n2)c(OC)cc1OCCN1CCOCC1 [30. (MsOH)2] |
| > 0.1 | 0.481 |  | C=CC(=O)Nc1cc(Nc2nccc(-c3cn(C)c4ccccc34)n2)c(OC)cc1N1CCC(N2CCC2)CC1 [14. (MsOH)2] |
| 0.001 |  | 0.056 | [2H]C([2H])([2H])N(CCN(C)C)c1cc(OC)c(Nc2nccc(-n3c(=O)n(C([2H])([2H])[2H])c4ccccc43)n2)cc1NC(=O)C=C [76. (MsOH)2] |
| 0.0004 |  | 0.043 | [2H]C([2H])([2H])N(CCN(C)C)c1cc(OC)c(Nc2nccc(-n3c(=O)n(CC)c4ccccc43)n2)cc1NC(=O)C=C [68. (MsOH)2] |
| 0.0352 | 1.72 |  | C=CC(=O)Nc1cc(Nc2nccc(-c3cn(C)c4ccccc34)n2)c(OC)cc1N(C)CCN1CCCC1 [12. (MsOH)2] |
| 0.0032 |  | 0.27 | [2H]C([2H])([2H])N(CCN(C)c1cc(OC)c(Nc2nccc(N3CCc4ccccc43)n2)cc1NC(=O)C=C)C([2H])([2H])[2H] [62. (HCl)n] |
| 0.0029 |  | 0.103 | C=CC(=O)Nc1cc(Nc2nccc(N3c4ccccc4N(C)S3(=O)=O)n2)c(OC)cc1N(C)CCN(C)C [110. (MsOH)2] |
| 0.0144 |  | 0.463 | [2H]C([2H])([2H])N(CCN(C)C)c1cc(OC)c(Nc2nccc(-n3nnc4ccccc43)n2)cc1NC(=O)C=C [74. (MsOH)3] |
| 0.0047 |  | 0.155 | C=CC(=O)Nc1cc(Nc2nccc(-n3c(=O)n(C(C)C)c4ccccc43)n2)c(OC)cc1N(C)CCN(C)C [106. (MsOH)2] |
| > 0.1 | 0.444 |  | C=CC(=O)Nc1cc(Nc2nccc(-c3cn(C)c4ccccc34)n2)c(OC)cc1N1CCC(N(C)C)CC1 [13. (MsOH)2] |
| 0.0027 |  | 0.049 | C=CC(=O)Nc1cc(Nc2nccc(N3c4ccccc4N(CC)S3(=O)=O)n2)c(OC)cc1N(C)CCN(C)C [111. (MsOH)2] |
| 0.0017 |  | 0.179 | [2H]C([2H])([2H])N(CCN(C)C)c1cc(OC)c(Nc2nccc(-c3cn(CC)c4ccccc34)n2)cc1NC(=O)C=C [73. (MsOH)2] |
| 0.0354 | 1.27 |  | C=CC(=O)Nc1cc(Nc2nccc(-c3cn(C)c4ccccc34)n2)c(OC)cc1N(C)CCN1CCC1 [11. (MsOH)2] |

| IC50 [1] [µM] | IC50 [2] [µM] | IC50 [3] [µM] | Structure (SMILES) |
| --- | --- | --- | --- |
| > 0.1 | 3.23 |  | C=CC(=O)Nc1cc(Nc2nccc(-n3nc(C)c4ccccc43)n2)c(OC)cc1N(C)CCN(C)C [55. (HCl)n] |
| 0.0382 | 0.738 |  | C=CC(=O)Nc1cc(Nc2nccc(-c3cn(C)c4ccccc34)n2)c(OC)cc1N(C)CCN(C)CCOC [54. (HCl)n] |
| 0.0082 |  | 0.28 | [2H]C([2H])([2H])N(CCN(C)c1cc(OC)c(Nc2nccc(N3CC(C)(C)c4ccccc43)n2)cc1NC(=O)C=C)C([2H])([2H])[2H] [57. (HCl)n] |
| 0.0005 |  | 0.046 | [2H]C([2H])([2H])N(CCN(C)c1cc(OC)c(Nc2nccc(-c3cn(S(C)(=O)=O)c4ccccc34)n2)cc1NC(=O)C=C)C([2H])([2H])[2H] [70. (MsOH)2] |
| > 0.1 | 5.13 |  | C=CC(=O)Nc1cc(Nc2nccc(-c3cn(C)c4ccccc34)n2)c(OC)cc1N1CCC(N2CCOCC2)C1 (stereo not drawn) [26. (MsOH)2] |
| 0.0181 | 2.17 |  | C=CC(=O)Nc1cc(Nc2cc(-c3cn(C)c4ccccc34)ccn2)c(OC)cc1N(C)CCN(C)C [43. (HCl)n] |
| > 0.1 | 0.333 |  | C=CC(=O)Nc1cc(Nc2nccc(-c3cn(C)c4ccccc34)n2)c(OC)cc1N1CCC(N2CCCC2)CC1 [15. (MsOH)2] |
| > 0.1 | 3.02 |  | C=CC(=O)Nc1cc(Nc2nccc(-c3cn(C)c4ccccc34)n2)c(OC)cc1N(C)CCS(C)(=O)=O [10. (MsOH)3] |
| 0.0399 | 0.446 |  | C=CC(=O)Nc1cc(Nc2nccc(-c3cn(C)c4ccccc34)n2)c(OC)cc1N1CCCC(N(C)C)C1 (stereo not drawn) [34. (MsOH)3] |
| 0.134 | 1.62 |  | C=CC(=O)Nc1cc(Nc2nccc(-c3cn(C)c4ccccc34)n2)c(OC)cc1N(C)CCCN(C)C [47. (MsOH)2] |
| > 0.1 | 5.25 |  | C=CC(=O)Nc1cc(Nc2nccc(-c3cn(C)c4ccccc34)n2)c(OC)cc1N1CC(N2CCOCC2)C1 [25. (MsOH)2] |
| 0.155 | 1.17 |  | C=CS(=O)(=O)Nc1cc(Nc2nccc(-c3cn(C)c4ccccc34)n2)c(OC)cc1N(C)CCN1CCCC1 [46. (MsOH)2] |
| > 0.1 | > 10 |  | C=CC(=O)Nc1cc(Nc2nccc(-c3cn(C)c4ccccc34)n2)c(OC)cc1OCCOC [32. (MsOH)] |
| 0.0485 | 0.955 |  | C=CC(=O)Nc1cc(Nc2nccc(-c3cn(C)c4ccccc34)n2)c(OC)cc1N1CCC(N2CCCC2)C1 (stereo not drawn) [19. MsOH] |
| > 0.1 | 1.09 |  | C=CS(=O)(=O)Nc1cc(Nc2nccc(-c3cn(C)c4ccccc34)n2)c(OC)cc1N(C)CCN(C)C [45. (HCl)n] |
| > 0.1 | > 10 |  | C=CC(=O)Nc1cc(Nc2nccc(-c3cn(C)c4ccccc34)n2)c(OC)cc1N1CC(OC)C1 [21. (MsOH)2] |
| > 0.1 | 0.538 |  | C=CC(=O)Nc1cc(Nc2nccc(-c3cn(C)c4ccccc34)n2)c(OC)cc1OC1CN(C)C1 [Example 28] |
| > 0.1 | 2.58 |  | C=CC(=O)Nc1cc(Nc2nccc(-c3cn(C)c4ccccc34)n2)c(OC)cc1N1CC(N2CCN(C)CC2)C1 [24. (MsOH)3] |
| > 0.1 | 1.43 |  | C=CC(=O)Nc1cc(Nc2nccc(-c3cn(C)c4ccccc34)n2)c(OC)cc1N(CCOC)CCOC [33. HCl] |
| > 0.1 | 4.98 |  | C=CC(=O)Nc1cc(Nc2nccc(-c3cn(C)c4ccccc34)n2)c(OC)cc1N(C)CCOC [6. (HCl)n] |
| 0.0908 | 2.28 |  | C=CC(=O)Nc1cc(Nc2nccc(-c3cn(C)c4ccccc34)n2)c(OC)cc1N1CC(N2CCCC2)C1 [Example 23] |
